From US7179926B2, “Aryloxyalkylamine NK-1/SSRI inhibitors” (Bristol-Myers Squibb Company, priority 2004, dated 2007) come the findings set out here.

A value given as a limit tells only on which side of the number the result lay.

Test [1] addresses T1, human serotonin transporters (Homo sapiens, UniProt P31645).
T1 construct: expressed in transfected cells
The test is described as follows: Serotonin transporter binding assay ([3H]-citalopram competition, HEK-hSERT cell membranes). As to conditions: 1 nM [3H]-citalopram, 1 hr at 25° C., read-out: SERT IC50. As for the experimental part:
Serotonin transporter binding assay. HEK-293 cells that stably express human serotonin transporters (HEK-hSERT cells) were grown at 37° C. in 5% CO2 as a monolayer in medium consisting of EMEM supplemented with 10% fetal bovine serum and G418 sulfate (500 μg/ml). To prepare membranes for radioligand binding experiments, cells were rinsed twice with phosphate-buffered saline (138 mM NaCl, 4.1 mM KCl, 5.1 mM Na2PO4, 1.5 mM KH2PO4, 11.1 mM glucose, pH 7.4). Cells were transferred from plates to polypropylene tubes (16×100 mm), centrifuged at 1,200×g for 5 min and were frozen at −80° C. until assay. Following centrifugation, pellets were resuspended by homogenization in buffer consisting of 50 mM Tris (pH 7.7 at 25° C.), 120 mM NaCl and 5 mM KCl and then centrifuged at 32,000×g for 10 min. Following centrifugation, supernatants were discarded and pellets were resuspended in buffer consisting of 50 mM Tris (pH 7.4 at 25° C.), 150 mM NaCl and 5 mM KCl. Membrane homogenates (200 μl/plate) were incubated with 1 nM [^3H]-citalopram (specific activity=85 Ci/mmol) and increasing concentrations of test compounds for 1 hr at 25° C. in a total volume of 250 μl. The assay buffer consisted of 50 mM Tris (pH 7.4 at 25° C.), 120 mM NaCl and 5 mM KCl (pH 7.4 with conc. HCl). Plates were incubated for 1 hr at 25° C., then filtered through 0.5% PEI treated Whatman GF/B filters using a Brandel cell harvester. Filters were washed three times with 3 ml of ice-cold tris wash buffer. Non-specific binding was defined with 10 μM fluoxetine. Amount of radioligand bound in the presence and absence of competitor was analyzed by plotting (−)log drug concentration versus the amount of radioligand specifically bound. The midpoint of the displacement curve (IC50, nM), signifies the potency. Ki values can be calculated using the method of Cheng and Prusoff (Cheng and Prusoff, Biochemical Pharmacology, Vol 22, pp. 3099–3108, Pergamon Press (1973)).

In test [2] the target is T2, neurokinin-1 (NK-1) receptor (Homo sapiens, UniProt P25103).
T2 construct: endogenously expresses the neurokinin-1 (NK-1) receptor; endogenous in cells; host or cells: U373 human glioblastoma-astrocytoma cells (membranes)
The experiment in a line: NK-1 Binding assay ([125I] Substance P competition, U373 cell membranes). As to conditions: Bolton Hunter labeled [125I] Substance P, 30 min at 20° C. The procedure:
NK-1 Binding assay. U373 cells, a human glioblastoma-astrocytoma cell line that endogenously expresses the neurokinin-1 (NK-1) receptor, were grown in a monolayer culture at 37° C. in 5% CO2 and fed with Minimum Essential Medium (MEM) supplemented with 10% fetal bovine serum. Membranes were prepared as follows: Cells were washed twice with ice-cold phosphate-buffered saline (pH 7.4) and then incubated for 5–10 minutes with ice-cold 10 mM Tris buffer (pH 7.4) containing 5 mM EDTA. Cells were removed from plates, homogenized, and centrifuged at 32,000×g for 20 minutes. The resulting supernatant was discarded, and the pellet resuspended by homogenization in 50 mM Tris buffer (pH 7.4) containing 1 mM EDTA and centrifuged at 32,000×g for 20 minutes. The resulting supernatant was discarded, and the pellet resuspended by homogenization in NK-1 binding assay buffer (50 mM Tris-HCL (pH 7.4), 3 mM MnCl2, 200 μg/ml BSA, 5 μg/ml chymostatin, 40 μg/ml bacitracin and 4 μg/ml leupeptin).
On the day of an experiment the membrane preparation was thawed, homogenized and diluted with NK-1 binding assay buffer to the appropriate concentration. Competition binding assays were performed in 96 well plate format by incubating membranes (5–10 μg/well) with Bolton Hunter labeled [^125I] Substance P, at a concentration of […], and concentrations of drugs ranging from 10000 to 0.01 nM. Samples were incubated for 30 min at 20° C. then filtered through GF/B glass fiber filters (pretreated with 1% polyethyleneimine and 0.3% Triton X-100) using a Brandel cell harvester. The filters were then washed with 10 ml ice cold 50 mM Tris-HCL (pH 7.4) containing 3 mM MgCl2. Non-specific was defined in the presence of 2 μM L-733,060 (a non-peptide NK-1 antagonist). The amount of radioligand bound in the presence and absence of competitor was analyzed by plotting (−)log drug concentration versus the amount of radioligand specifically bound. The midpoint of the displacement curve (IC50, nM), signifies the potency. Ki values can be calculated using the method of Cheng and Prusoff (Cheng and Prusoff, Biochemical Pharmacology, Vol 22, pp. 3099–3108, Pergamon Press (1973)).

T1 sequence (P31645 whole entry): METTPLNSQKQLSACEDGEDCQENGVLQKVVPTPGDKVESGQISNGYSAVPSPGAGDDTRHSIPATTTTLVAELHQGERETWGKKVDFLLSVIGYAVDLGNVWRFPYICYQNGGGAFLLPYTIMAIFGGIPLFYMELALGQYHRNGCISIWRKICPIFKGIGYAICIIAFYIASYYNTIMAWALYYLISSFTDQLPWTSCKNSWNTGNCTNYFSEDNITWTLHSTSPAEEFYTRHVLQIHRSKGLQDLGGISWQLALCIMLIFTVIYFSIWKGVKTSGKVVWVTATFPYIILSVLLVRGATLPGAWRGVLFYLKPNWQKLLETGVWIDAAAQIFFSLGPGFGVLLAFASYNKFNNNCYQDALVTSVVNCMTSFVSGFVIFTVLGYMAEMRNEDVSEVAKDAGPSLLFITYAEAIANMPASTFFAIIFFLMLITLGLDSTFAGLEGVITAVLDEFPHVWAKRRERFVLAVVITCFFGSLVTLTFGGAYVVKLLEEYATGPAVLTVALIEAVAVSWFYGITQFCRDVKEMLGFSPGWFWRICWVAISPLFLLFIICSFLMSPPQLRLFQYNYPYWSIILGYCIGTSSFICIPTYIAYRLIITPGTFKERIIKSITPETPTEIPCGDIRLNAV
T2 sequence (P25103 whole entry): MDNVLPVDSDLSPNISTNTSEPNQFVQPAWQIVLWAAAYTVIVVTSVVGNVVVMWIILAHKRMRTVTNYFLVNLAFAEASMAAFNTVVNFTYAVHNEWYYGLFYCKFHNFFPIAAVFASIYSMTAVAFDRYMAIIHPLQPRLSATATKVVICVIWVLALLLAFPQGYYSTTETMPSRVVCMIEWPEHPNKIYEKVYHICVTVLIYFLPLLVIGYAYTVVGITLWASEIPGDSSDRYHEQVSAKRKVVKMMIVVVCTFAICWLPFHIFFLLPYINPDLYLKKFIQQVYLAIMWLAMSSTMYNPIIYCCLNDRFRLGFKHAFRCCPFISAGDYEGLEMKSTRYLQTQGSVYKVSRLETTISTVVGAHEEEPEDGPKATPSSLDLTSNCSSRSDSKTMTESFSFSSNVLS

As to `NCCC(O)(COCc1cc(C(F)(F)F)cc(C(F)(F)F)c1)c1ccccc1` (racemic) [Example 7, 1-(3,5-bis(trifluoromethyl)benzyloxy)-4-amino-2-phenylbutan-2-ol], the IC50 was more than 0.3 µM in test [1] and 0.1 to 0.3 µM in test [2].

On to `CN(C)CC(O)(COCc1cc(C(F)(F)F)cc(C(F)(F)F)c1)c1ccccc1` (stereo not shown) [Example 1, 1-(3,5-bis(trifluoromethyl)benzyloxy)-3-(dimethylamino)-2-phenylpropan-2-ol], for which the IC50 in test [1] lay within 0.1 to 0.3 µM; in test [2] it was 0.001 to 0.1 µM. For `NCC(O)(COCc1cc(C(F)(F)F)cc(C(F)(F)F)c1)c1ccccc1` (stereo not shown) [Example 2, 1-(3,5-bis(trifluoromethyl)benzyloxy)-3-amino-2-phenylpropan-2-ol], in that order: 0.001 to 0.1 µM and 0.001 to 0.1 µM. With `CNCC(O)(COCc1cc(C(F)(F)F)cc(C(F)(F)F)c1)c1ccccc1` (stereo not shown) [Example 3, 1-(3,5-bis(trifluoromethyl)benzyloxy)-3-(methylamino)-2-phenylpropan-2-ol], the IC50 in test [1] was in the range of 0.1 to 0.3 µM; in test [2], 0.001 to 0.1 µM. `NCCC(O)(COCc1cc(C(F)(F)F)cc(C(F)(F)F)c1)c1ccccc1` (stereo not shown) [Example 4, 1-(3,5-bis(trifluoromethyl)benzyloxy)-4-amino-2-phenylbutan-2-ol]: the IC50 in test [1] and in test [2] was 0.001 to 0.1 µM in each case. In the case of `CN(C)CCC(O)(COCc1cc(C(F)(F)F)cc(C(F)(F)F)c1)c1ccccc1` (stereo not shown) [Example 5, 1-(3,5-bis(trifluoromethyl)benzyloxy)-4-(dimethylamino)-2-phenylbutan-2-ol], the IC50 is more than 0.3 µM in test [1] and 0.001 to 0.1 µM in test [2]. As for `CNCCC(O)(COCc1cc(C(F)(F)F)cc(C(F)(F)F)c1)c1ccccc1` (stereo not shown) [Example 6, 1-(3,5-bis(trifluoromethyl)benzyloxy)-4-(methylamino)-2-phenylbutan-2-ol], the IC50 in test [1] and in test [2] was 0.001 to 0.1 µM throughout. Regarding `Cc1ccc(C(O)(CCN)COCc2cc(C(F)(F)F)cc(C(F)(F)F)c2)cc1` (stereo not shown) [Example 9, 1-(3,5-bis(trifluoromethyl)benzyloxy)-4-amino-2-p-tolylbutan-2-ol], the IC50 in test [1] and in test [2] was 0.001 to 0.1 µM throughout. With `NCCC(O)(COCc1cc(C(F)(F)F)cc(C(F)(F)F)c1)c1ccc(Cl)c(Cl)c1` (stereo not shown) [Example 10, 1-(3,5-bis(trifluoromethyl)benzyloxy)-4-amino-2-(3,4-dichlorophenyl)butan-2-ol], the IC50 in test [1] fell in the range of 0.1 to 0.3 µM; in test [2], 0.001 to 0.1 µM. For the compound `NCCC(O)(COCc1cc(C(F)(F)F)cc(C(F)(F)F)c1)c1ccc2ccccc2c1` (stereo not shown) [Example 11, 1-(3,5-bis(trifluoromethyl)benzyloxy)-4-amino-2-(naphthalen-2-yl)butan-2-ol], the figures for the IC50 in test [1] and in test [2] were 0.001 to 0.1 µM and 0.1 to 0.3 µM, respectively.

For the compound `NCCC(O)(COCc1cc(C(F)(F)F)cc(C(F)(F)F)c1)c1cccc(F)c1` (stereo not shown) [Example 12, 1-(3,5-bis(trifluoromethyl)benzyloxy)-4-amino-2-(3-fluorophenyl)butan-2-ol], the IC50 in test [1] and in test [2] was 0.001 to 0.1 µM in each case. Regarding `Cc1cc(C(O)(CCN)COCc2cc(C(F)(F)F)cc(C(F)(F)F)c2)ccc1F` (stereo not shown) [Example 13, 1-(3,5-bis(trifluoromethyl)benzyloxy)-4-amino-2-(4-fluoro-3-methylphenyl)butan-2-ol], the IC50 in test [1] and in test [2] was 0.001 to 0.1 µM throughout. Turning to `COc1cccc(C(O)(CCN)COCc2cc(C(F)(F)F)cc(C(F)(F)F)c2)c1` (stereo not shown) [Example 14, 1-(3,5-bis(trifluoromethyl)benzyloxy)-4-amino-2-(3-methoxyphenyl)butan-2-ol], the IC50 in test [1] and in test [2] was 0.001 to 0.1 µM throughout. With `NCCC(O)(COCc1cc(C(F)(F)F)cc(C(F)(F)F)c1)c1ccc(F)c(F)c1` (stereo not shown) [Example 15, 1-(3,5-bis(trifluoromethyl)benzyloxy)-4-amino-2-(3,4-difluorophenyl)butan-2-ol], the IC50 in test [1] and in test [2] was 0.001 to 0.1 µM in each case. For the compound `CN(C)c1ccc(C(O)(CCN)COCc2cc(C(F)(F)F)cc(C(F)(F)F)c2)cc1` (stereo not shown) [Example 16, 1-(3,5-bis(trifluoromethyl)benzyloxy)-4-amino-2-(4-(dimethylamino)phenyl)butan-2-ol], the IC50 in test [1] and in test [2] was more than 0.3 µM throughout. `Cc1cccc(C(O)(CCN)COCc2cc(C(F)(F)F)cc(C(F)(F)F)c2)c1` (stereo not shown) [Example 17, 1-(3,5-bis(trifluoromethyl)benzyloxy)-4-amino-2-m-tolylbutan-2-ol]: the IC50 in test [1] and in test [2] was 0.001 to 0.1 µM each time. For the compound `Cc1cc(C)cc(C(O)(CCN)COCc2cc(C(F)(F)F)cc(C(F)(F)F)c2)c1` (stereo not shown) [Example 18, 1-(3,5-bis(trifluoromethyl)benzyloxy)-4-amino-2-(3,5-dimethylphenyl)butan-2-ol], the IC50 in test [1] and in test [2] was 0.001 to 0.1 µM in each case. Take `NCCC(O)(COCc1cc(C(F)(F)F)cc(C(F)(F)F)c1)c1cc(F)cc(F)c1` (stereo not shown) [Example 19, 1-(3,5-bis(trifluoromethyl)benzyloxy)-4-amino-2-(3,5-difluorophenyl)butan-2-ol]: the IC50 is 0.1 to 0.3 µM in test [1] and 0.001 to 0.1 µM in test [2]. Turning to `COc1ccc(C(O)(CCN)COCc2cc(C(F)(F)F)cc(C(F)(F)F)c2)cc1` (stereo not shown) [Example 20, 1-(3,5-bis(trifluoromethyl)benzyloxy)-4-amino-2-(4-methoxyphenyl)butan-2-ol], the IC50 in test [1] lay in the range of 0.001 to 0.1 µM; in test [2], 0.1 to 0.3 µM. Regarding `NCCC(O)(COCc1cc(C(F)(F)F)cc(C(F)(F)F)c1)c1cccc(Cl)c1` (stereo not shown) [Example 21, 1-(3,5-bis(trifluoromethyl)benzyloxy)-4-amino-2-(3-chlorophenyl)butan-2-ol], the concentration for half-maximal inhibition (IC50) in test [1] and in test [2] was 0.001 to 0.1 µM throughout. Take `Cc1ccc(C(O)(CCN)COCc2cc(C(F)(F)F)cc(C(F)(F)F)c2)c2ccccc12` (stereo not shown) [Example 22, 1-(3,5-bis(trifluoromethyl)benzyloxy)-4-amino-2-(4-methylnaphthalen-1-yl)butan-2-ol]: the IC50 in test [1] lay in the range of 0.001 to 0.1 µM; in test [2], 0.1 to 0.3 µM.

For the compound `COc1ccc(C(O)(CCN)COCc2cc(C(F)(F)F)cc(C(F)(F)F)c2)cc1F` (stereo not shown) [Example 23, 1-(3,5-bis(trifluoromethyl)benzyloxy)-4-amino-2-(3-fluoro-4-methoxyphenyl)butan-2-ol], the IC50 in test [1] and in test [2] was 0.001 to 0.1 µM in each case. As for `NCCC(O)(COCc1cc(C(F)(F)F)cc(C(F)(F)F)c1)c1cc(F)cc(Cl)c1` (stereo not shown) [Example 24, 1-(3,5-bis(trifluoromethyl)benzyloxy)-4-amino-2-(3-chloro-5-fluorophenyl)butan-2-ol], the IC50 in test [1] was in the range of 0.1 to 0.3 µM; in test [2], 0.001 to 0.1 µM. For `COc1ccc(F)cc1C(O)(CCN)COCc1cc(C(F)(F)F)cc(C(F)(F)F)c1` (stereo not shown) [Example 25, 1-(3,5-bis(trifluoromethyl)benzyloxy)-4-amino-2-(5-fluoro-2-methoxyphenyl)butan-2-ol], in that order: 0.1 to 0.3 µM and 0.001 to 0.1 µM. Turning to `NCCC(O)(CNCc1cc(C(F)(F)F)cc(C(F)(F)F)c1)c1ccccc1` (stereo not shown) [Example 81], the IC50 in test [2] lay in the range of 0.1 to 0.3 µM.

As a reminder, the IC50 is the midpoint of a concentration-inhibition curve.
